# Results published in patent US20060051295A1, “Estrogen receptor interaction with a transcription factor” (priority 2002, published 2006).
# Tests used:
# [1] = tested on: VCAM gene expression; assay: Rabbit atherogenic diet model, VCAM mRNA in aorta bow (RNase protection)
# [2] = tested on: E-selectin (ELAM) gene expression; assay: Rabbit atherogenic diet model, E-selectin mRNA in aorta bow (RNase protection)
# [3] = tested on: IL-6 production; assay: IL-6 secretion by U-2OS cells stably expressing ERα (sandwich ELISA); assay type: cell-based, human; conditions: U-2OS-ERα, IL-1β 125 pg/ml + IFNγ 10 ng/ml
# Source text: Estrogens maintain the balance between bone resorption and formation by inhibiting the production of cytokines by osteoblasts that stimulate osteoclast activity and thus bone resorption. We analysed the relevance of ER NF-κB transrepression on IL-6 production in more depth. When the pre-osteoblast cell line U-2 OS was stimulated with cytokines such as IL-1β, production of endogenous IL-6 protein is increased. However, when U-2OS cells are also exposed to IL-1β and estrogens, the increased production of IL-6 is repressed [Table 8].
# Numbers are luminescence in counts per sec reflecting IL-6 produced by the cells
# Secretion of endogenously produced IL-6 was measured by sandwich ELISA as outlined in Material and Methods.
# For studying repression of human IL-6 secreted by U-2 OS cells that stably overexpress ERα (U-2 OS-ERα cells) a standard sandwich ELISA was used (ELISA kit of R&D systems #DY206). Cells were plated in 24 or 96 wells plates in M505+dextran-coated charcoal stripped serum (i.e. 10% BCTS) and allowed to grow to 90% confluency.
# ELISA was performed according to the protocol of the manufacturer and as briefly described below. After overnight incubation of the cells with compounds in the appropriate concentration, the supernatants were transferred to 96 wells plates that had been coated overnight with anti-IL-6 capture antibody. Captured IL-6 was subsequently detected using a biotinylated anti-IL-6 detection antibody and Streptavidin-AP. Il-6 concentrations per well were subsequently quantified using the chemoluminescent substrate CSPD (Elisa-Light™, #EL100CY, Tropix), after which luminescence was determined in a Victor multilabel counter (Wallac).
# [4] = tested on: cRel; assay: Yeast two-hybrid cRel, no partner; assay type: cell-based
# Source text: A yeast two-hybrid assay is a cellular method to quantify the degree of interaction between two proteins. This is done by producing constructs that encode for fusion proteins of the two proteins to be studied, in this case ER and c-Rel, with either the transactivating or DNA binding part of the Gal4. The transactivating and DNA binding part of gal are separately not capable of inducing reporter activity of a gal4-responsive β-galactosidase reporter construct. Due to the interaction of the two proteins the transactivating and DNA binding parts of Gal4 will come in close proximity and as a result induction of a gal-responsive reporter will occur. More specificcally, in this embodiment of the invention the estrogen receptor is fused to the DNA binding domain (DBD) of Gal4, whereas c-Rel is fused to the activation domain (AD) of Gal4. The ER/Gal4-DBD fusion protein will bind to Gal4 response elements that are upstream of the reporter gene β-galactosidase in the yeast strain. Interaction between ER and c-Rel is compound dependent, therefore increasing concentrations of compound in the in vitro system will increase the number of ER and cRel molecules that interact, that can be measured as an increase of β-galactosidase reporter activity until saturation levels are reached. The amount of β-galactosidase reporter activity therefore is a measure for the degree of interaction between estrogen receptor and c-Rel.
# Table 5. […] In this assay format, ERα (or ERβ) was fused to the DNA binding domain of GAL4 whereas c-Rel (or RelA) was fused to the activation domain of GAL4. Interaction between ER and NF-κB yields a transcriptionally active complex, that induces the LacZ reporter gene which results in quantifiable β-galactosidase activity. n.d. means: not determined.
# pKCRE-ERα, pKCRE-ERβ and pNGV1-GR contain the human wild-type estrogen receptor α (ERα), ERβ or GR respectively under control of the SV40 promoter. The pCMV4-c-Rel expression vector was produced by cloning of the coding region of c-Rel into the pCMV4 vector (Andersson et al., 1989). pGL3-ELAM, pGL3-VCAM and pGL3-ICAM have been constructed based on PCR using the sequences as outlined in appendix 1. The luciferase reporter plasmid 3*NF-κB-TK was constructed by inserting three repeats of the NF-κB binding site from the ICAM promoter (van de Stolpe et al.; J. Biol Chem. 269: 6185-6192. 1994) in front of the herpes simplex virus thymidine kinase (HSV-TK) promoter. The TK promoter was cloned into the Bgl II-site of pGL3-basic (Promega). The triple repeat of NF-κB binding sites was constructed by annealing the oligonucleotide primers 5′-[…]-3′ and 5′-[…]-3′ followed by PRC amplification and subcloning in the pCR™2.1 vector. The insert was excised using HindIII, blunted with Klenow DNA polymerase and ligated into the SmaI site of pGL3-tk-luc. 4xERE-TATA Luc (plasmid nr. 460) contains four repeats of an estrogen responsive element followed by a TATA box and a luciferase gene. The pSV-β-Galactosidase (pSVβ) control vector (Promega) served as a positive control vector for monitoring transfection efficiencies of mammalian cells. The SV40 early promoter and enhancer drive transcription of the LacZ gene which encodes the β-Galactosidase enzyme. The yeast 2-hybrid constructs pGAD424-ERα, pGAD424-ERαdAB and pGAD424-ERβ were constructed by cloning respectively the human ERα, the ERα without the AB domain and the human ERβ cDNA in pGAD424. pGAD424-ERα LBD was constructed by cloning the LBD of ERα, obtained by PCR, in the EcoRI and SalI sites of pGAD424 vector. pGBT9-c-Rel was constructed by cloning the c-Rel fragment, obtained by PCR on pCMV4-c-Rel in the EcoRI and BamHI sites of pGBT9. The p65/RelA cDNA was obtained by PCR on the pCMV4-p65.
# [5] = diet 2 weeks, 4 hours after 3 μg/kg s.c.
# [6] = diet 2 weeks, 12 hours after 3 μg/kg s.c.
# [7] = diet 4 weeks, 12 hours after 3 μg/kg s.c.
# [8] = diet 8 weeks, 4 hours after 3 μg/kg s.c.
# [9] = diet 18 weeks, 4 hours after 3 μg/kg s.c.
# [10] = diet 18 weeks, 12 hours after 3 μg/kg s.c.
smiles,measurement,setting,value
"C[C@]12CC[C@@H]3c4ccc(O)cc4CC[C@H]3[C@@H]1CC[C@@H]2O [Org E2, 17β-estradiol]","VCAM mRNA level (RNase protection, divided by GAPDH signal)",[1]; [5],0.004949
same,"VCAM mRNA level (RNase protection, divided by GAPDH signal)",[1]; [6],0.01033
same,"VCAM mRNA level (RNase protection, divided by GAPDH signal)","[1]; diet 4 weeks, 4 hours after 3 μg/kg s.c.",0.005097
same,"VCAM mRNA level (RNase protection, divided by GAPDH signal)",[1]; [7],0.006225
same,"VCAM mRNA level (RNase protection, divided by GAPDH signal)",[1]; [8],0.007292
same,"VCAM mRNA level (RNase protection, divided by GAPDH signal)","[1]; diet 8 weeks, 12 hours after 3 μg/kg s.c.",0.009832
same,"VCAM mRNA level (RNase protection, divided by GAPDH signal)",[1]; [9],0.0345
same,"VCAM mRNA level (RNase protection, divided by GAPDH signal)",[1]; [10],0.02017
same,"ELAM mRNA level (RNase protection, divided by GAPDH signal)",[2]; [5],0
same,"ELAM mRNA level (RNase protection, divided by GAPDH signal)",[2]; [6],0.0003897
same,"ELAM mRNA level (RNase protection, divided by GAPDH signal)",[2]; [7],0
same,"ELAM mRNA level (RNase protection, divided by GAPDH signal)",[2]; [8],0.0006813
same,"ELAM mRNA level (RNase protection, divided by GAPDH signal)",[2]; [9],0.002788
same,"ELAM mRNA level (RNase protection, divided by GAPDH signal)",[2]; [10],0.0008307
same,Il-6 production (luminescence),[3]; E2 0.001 nM,136039 counts per sec
same,Il-6 production (luminescence),[3]; E2 0.01 nM,79230 counts per sec
same,Il-6 production (luminescence),[3]; E2 0.1 nM,50375 counts per sec
same,Il-6 production (luminescence),[3]; E2 1 nM,41070 counts per sec
same,β-galactosidase activity,[4]; E2 0.0003 nM,1251
same,β-galactosidase activity,[4]; E2 0.003 nM,1135
same,β-galactosidase activity,[4]; E2 0.01 nM,1093
same,β-galactosidase activity,[4]; E2 0.03 nM,1202
same,β-galactosidase activity,[4]; E2 0.1 nM,1204
same,β-galactosidase activity,[4]; E2 0.3 nM,1202
same,β-galactosidase activity,[4]; E2 1 nM,1145
same,β-galactosidase activity,[4]; E2 3 nM,1246
same,β-galactosidase activity,[4]; E2 10 nM,1146
same,β-galactosidase activity,[4]; E2 30 nM,1411
same,β-galactosidase activity,[4]; E2 100 nM,1261
